“And” between values parts separate entries of the source, which are not always exact repeats. Identical values can stand only once. Counter-ions that a name gives are not always drawn. Ends that are not written are not given here.
Experiments:
[1] = system: pathway closure; assay: Inhibition of pathway closure by chemicals, methylene blue dye score after microprotrusion array pretreatment; type: in vivo, hairless guinea pigs
Experimental: Inhibition of pathway collapse by chemical agents was studied following pretreatment of the skin with a microprotrusion array and application of a formulation containing the agent for 24 h. Quantitation was performed by evaluation of dye impregnation of the pathways.
Application of the microprotrusion array was performed with an impact applicator. […] Following application, the stretching tension was released. […] The guinea pig received a second system containing a different formulation on the opposite site. Twenty four hours after application, three systems from each group were removed and residual formulation washed from the skin. The skin was stained with a 1% methylene blue solution. Excess dye was thoroughly removed with 70% isopropyl alcohol pads and a picture of the site was taken. Pictures were scored on a 0 to 5 scale, 5 being the dye uptake obtained immediately following microprotrusion array application and 0 being the dye uptake obtained after 24 h contact with a control formulation. A score of 0.5 or greater was considered significant. Various osmotic agents, anticoagulants, antiinflammatory agents, gelling agents as well as gels of different pH and various additives were tested (Table II).

[2] = Passive intracutaneous delivery of plasmid DNA vaccine with microprotrusion array (skin biopsy, PCR); type: in vivo, hairless guinea pigs; settings: for Increase in plasmid DNA delivered as compared to the control formulation: at one hour, 3% citric acid trisodium salt or 1% Tween 80 in formulation
Experimental: Feasibility studies were conducted in hairless guinea pigs (HGPs) to determine whether passive intracutaneous delivery of a plasmid DNA vaccine (pCMV-AYW-HBs-Mkan), which encodes for hepatitis B surface antigen [HBsAg]), could be achieved using Macroflux. […] Application of the microprotrusion array was performed with an impact applicator. The system applied comprised a foam double adhesive ring (diameter 2.5 cm, thickness 0.08 cm) with a 1 cm^2 reservoir in the middle.
One of two configurations of microprotrusion arrays were used. Each configuration has a total surface area of 2 cm^2 and an active total blade surface area of 1 cm^2.
A microprotrusion array of the selected type was adhered to the adhesive foam and covered the bottom of the reservoir (after application, the microprotrusion array is in contact with the skin). Following application, the stretching tension was released and the microprotrusion array was left in situ. […] At 1 hour after application, two systems from each group were removed and residual formulation washed from the skin. The amount of drug penetrated at that time was determined in a 6 mm diameter full thickness skin biopsy taken at the skin site. The biopsy was dissolved in a digestion buffer (sodium dodecyl sulfate/proteinase K) and relevant DNA content was evaluated by polymerase chain (PCR) reaction followed by electrophoresis of the PCR product. A positive control group was included which consisted of 10 μg plasmid DNA injected intradermally. Negative controls consisted of the plasmid DNA applied on the skin without the use of a microprotrusion array. […].

[3] = additive concentration 0.05%, 24 h, scale 0 to 5, 0.5 or greater significant
[4] = additive concentration 11%, 24 h, scale 0 to 5, 0.5 or greater significant
[5] = 24 h, methylene blue evaluation, Table II
[6] = additive concentration 23%, 24 h, scale 0 to 5, 0.5 or greater significant
[7] = additive concentration 50%, 24 h, scale 0 to 5, 0.5 or greater significant
[8] = additive concentration 2%, 24 h, scale 0 to 5, 0.5 or greater significant
[9] = additive concentration 30%, 24 h, scale 0 to 5, 0.5 or greater significant
[10] = additive concentration 10%, 24 h, scale 0 to 5, 0.5 or greater significant
[11] = additive concentration 13%, 24 h, scale 0 to 5, 0.5 or greater significant
[12] = additive concentration 5%, 24 h, scale 0 to 5, 0.5 or greater significant
[13] = additive concentration 12%, 24 h, scale 0 to 5, 0.5 or greater significant
[14] = additive concentration 1%, 24 h, scale 0 to 5, 0.5 or greater significant

Molecule: SIKVAV [reference compound]
- Score (methylene blue) [1, 3]: 0.5 ± 0.5

Molecule: O=C(O)CC(O)C(=O)O (stereo not drawn) [Malic acid, disodium salt]
- Score (methylene blue) [1, 4]: 2.1 ± 0.3

Molecule: OC[C@@H](O)[C@@H](O)[C@@H](O)CO [Adonitol]
- Effect on pathway closure (in words) [1, 5]: most effective agents
- Score (methylene blue) [1, 4]: 3.0 ± 0.3
- Score (methylene blue) [1, 6]: 3.5 ± 0.3
- Score (methylene blue) [1, 7]: 3.7 ± 0.3

Molecule: Cl.N [Ammonium chloride]
- Score (methylene blue) ([1]; guinea pig, in vivo): 2.6 ± 0.1

Molecule: C[C@H]1C[C@H]2[C@@H]3CCC4=CC(=O)C=C[C@]4(C)[C@@]3(F)[C@@H](O)C[C@]2(C)[C@@]1(O)C(=O)COP(=O)([O-])[O-].[Na+].[Na+] [Betamethasone phospate Na, reference compound]
- Effect on pathway closure (in words) [1, 5]: significant effect
- Score (methylene blue) [1, 8]: 2.3 ± 0.4

Molecule: OCCCCO [1-4 Butane diol]
- Score (methylene blue) ([1]; guinea pig, in vivo): 3.0 ± 0.3

Molecule: OC[C@@H](O)[C@@H](O)CO [Erythritol]
- Score (methylene blue) [1, 9]: 3.3 ± 0.4

Molecule: Cl.N[C@H]1C(O)O[C@H](CO)[C@H](O)[C@@H]1O (stereo partly drawn) [Galactosamine hydrochloride]
- Score (methylene blue) [1, 7]: 2.8 ± 0.3

Molecule: Heparin [reference compound]
- Score (methylene blue) [1, 8]: 0.3 ± 0.2

Molecule: O=C(O)c1ccccc1O [salicylic acid]
- Effect on pathway closure (in words) [1, 5]: had an effect on pathway closure

Molecule: CCO [Ethanol]
- Score (methylene blue) ([1]; additive concentration 0% (4.3 M), 24 h, scale 0 to 5, 0.5 or greater significant): 0 ± 0

Molecule: CC(=O)O.N [Ammonium acetate]
- Score (methylene blue) ([1]; guinea pig, in vivo): 2.1 ± 0.1

Molecule: OC[C@H]1O[C@@](CO)(O[C@H]2O[C@H](CO)[C@@H](O)[C@H](O)[C@H]2O)[C@@H](O)[C@@H]1O [Sucrose]
- Score (methylene blue) [1, 7]: 1.7 ± 0.6

Molecule: CC(O)C(C)O (stereo not drawn) [2-3 Butane diol]
- Score (methylene blue) ([1]; guinea pig, in vivo): 2.2 ± 0.2

Molecule: OCCOCCOCCO [Triethylene glycol]
- Score (methylene blue) [1, 10]: 1.3 ± 0.3
- Score (methylene blue) [1, 9]: 3.3 ± 0.3
- Score (methylene blue) [1, 7]: 3.7 ± 0.3

Molecule: O=C(O)CC(O)(CC(=O)O)C(=O)O [citric acid trisodium salt]
- Comparison between formulation groups ([2]; 1 hour): most efficient formulation
- Increase in plasmid DNA delivered as compared to the control formulation [2]: more than 10 fold

Molecule: O=C([O-])[C@H](O)[C@@H](O)[C@H](O)[C@H](O)CO.[Na+] [Gluconic acid sodium salt]
- Score (methylene blue) [1, 10]: 2.7 ± 0.2
- Score (methylene blue) [1, 11]: 3.3 ± 0.0
- Score (methylene blue) [1, 9]: 4.5 ± 0.0

Molecule: OC[C@H]1O[C@H](O[C@H]2O[C@H](CO)[C@@H](O)[C@H](O)[C@H]2O)[C@H](O)[C@@H](O)[C@@H]1O [Trehalose]
- Score (methylene blue) [1, 7]: 1.5 ± 0.0

Molecule: O=C[C@H](O)[C@@H](O)[C@H](O)[C@H](O)C(=O)[O-].[Na+] [Glucuronic acid sodium salt]
- Effect on pathway closure (in words) [1, 5]: most effective agents
- Score (methylene blue) [1, 12]: 1.0 ± 0.0
- Score (methylene blue) [1, 10]: 3.5 ± 0.3
- Score (methylene blue) [1, 11]: 3.0 ± 0.3

Molecule: PEG-12
- Score (methylene blue) [1, 7]: 0 ± 0

Molecule: PEG-4
- Score (methylene blue) [1, 7]: 2 ± 0.6

Molecule: O=C(O)CO [Glycolic acid, sodium salt]
- Score (methylene blue) ([1]; additive concentration 6%, 24 h, scale 0 to 5, 0.5 or greater significant): 1.7 ± 0.1
- Score (methylene blue) [1, 13]: 2.6 ± 0.1
- Score (methylene blue) ([1]; additive concentration 24%, 24 h, scale 0 to 5, 0.5 or greater significant): 2.7 ± 0.1

Molecule: O=C(O)CC(O)(CC(=O)O)C(=O)O [Citric acid disodium salt]
- Score (methylene blue) ([1]; additive concentration 0.5%, 24 h, scale 0 to 5, 0.5 or greater significant): 0 ± 0
- Score (methylene blue) [1, 14]: 0.3 ± 0.2
- Score (methylene blue) ([1]; additive concentration 3%, 24 h, scale 0 to 5, 0.5 or greater significant): 1.2 ± 0.2

Molecule: O=C[C@@H](O)[C@H](O)[C@@H](O)[C@@H](O)CO [L-Glucose]
- Score (methylene blue) [1, 6]: 3.5 ± 0.3

Molecule: NCC(=O)O [Glycine]
- Score (methylene blue) ([1]; additive concentration 9%, 24 h, scale 0 to 5, 0.5 or greater significant): 1.8 ± 0.3

Molecule: CC(=O)[O-].[Na+] [Sodium acetate]
- Score (methylene blue) ([1]; guinea pig, in vivo): 1.7 ± 0.1

Molecule: [Ca+2].[Cl-].[Cl-] [Calcium chloride]
- Score (methylene blue) ([1]; guinea pig, in vivo): 0.7 ± 0.4

Molecule: Arg-Gly-Asp [reference compound]
- Score (methylene blue) [1, 14]: 0.7 ± 0.4

Molecule: CCOCCOCCO [Ethoxydiglycol]
- Score (methylene blue) [1, 7]: 0.5 ± 0.3

Molecule: [Cl-].[Na+] [NaCl]
- Score (methylene blue) ([1]; guinea pig, in vivo): 1.8 ± 0.2

Molecule: OC[C@@H](O)[C@@H](O)[C@H](O)[C@@H](O)CO [Sorbitol]
- Effect on pathway closure (in words) [1, 5]: most effective agents
- Score (methylene blue) [1, 4]: 1.3 ± 0.6
- Score (methylene blue) [1, 6]: 3.3 ± 0.3
- Score (methylene blue) [1, 7]: 3.3 ± 0.3

Molecule: O=C[C@H](O)[C@@H](O)[C@H](O)[C@H](O)CO [D-Glucose]
- Effect on pathway closure (in words) [1, 5]: most effective agents
- Score (methylene blue) [1, 12]: 1.5 ± 0.0
- Score (methylene blue) [1, 4]: 1.8 ± 0.6
- Score (methylene blue) [1, 6]: 3.5 ± 0.5
- Score (methylene blue) [1, 7]: 4.0 ± 0.3

Molecule: CC(O)CO (stereo not drawn) [Propylene glycol]
- Score (methylene blue) [1, 9]: 0.7 ± 0.2
- Score (methylene blue) [1, 7]: 1.3 ± 0.1
- Score (methylene blue) ([1]; additive concentration 70%, 24 h, scale 0 to 5, 0.5 or greater significant): 1.0 ± 0.6

Molecule: CC(C(=O)O)c1cccc(C(=O)c2ccccc2)c1 (stereo not drawn) [Ketoprofen Na, reference compound]
- Effect on pathway closure (in words) [1, 5]: significant effect
- Score (methylene blue) [1, 8]: 2.3 ± 0.6

Molecule: Laminin
- Score (methylene blue) [1, 3]: 1.0 ± 0.3

Molecule: CCCCCCCC/C=C\CCCCCCCC(=O)OCCOCC(OCCO)C1OCC(OCCO)C1OCCO (stereo not drawn) [Tween 80]
- Increase in plasmid DNA delivered as compared to the control formulation [2]: no significant enhancement

Molecule: Tyr-Ile-Gly-Ser-Arg-NH2 (YIGSR-NH2) [reference compound]
- Score (methylene blue) [1, 3]: 0.3 ± 0.3

Molecule: O=C[C@H](O)[C@H](O)[C@H](O)CO [Ribose]
- Score (methylene blue) [1, 7]: 2.3 ± 0.3

Molecule: CC(O)CCO (stereo not drawn) [1-3 Butane diol]
- Score (methylene blue) ([1]; guinea pig, in vivo): 0.2 ± 0.2

Molecule: O[C@H]1[C@H](O)[C@@H](O)[C@H](O)[C@@H](O)[C@H]1O [Inositol]
- Score (methylene blue) [1, 10]: 1.5 ± 0.3

Molecule: C=C1[C@@H](C)[C@H]2[C@H](Cc3ccccc3)NC(=O)[C@]23[C@H](OC(C)=O)/C=C/[C@@](C)(O)C(=O)[C@@H](C)C/C=C/[C@H]3[C@@H]1O [Cytochalasin D, reference compound]
- Score (methylene blue) ([1]; additive concentration 0.025%, 24 h, scale 0 to 5, 0.5 or greater significant): 1.5 ± 0.0

Molecule: Insulin [reference compound]
- Score (methylene blue) ([1]; additive concentration 3 mM, 24 h, scale 0 to 5, 0.5 or greater significant): 0.2 ± 0.2

Molecule: O=C(O)CN(CCN(CC(=O)O)CC(=O)O)CC(=O)O [EDTA]
- Effect on pathway closure (in words) ([1]; guinea pig, in vivo): most effective agents in preventing pathway closure
- Score (methylene blue) ([1]; guinea pig, in vivo): 1.3 ± 0.2

Molecule: CCCCCCCCCCCCCCCC[n+]1ccccc1 [Cetyl pyridinium chloride]
- Score (methylene blue) ([1]; guinea pig, in vivo): 0 ± 0

Molecule: O=C(O)C(O)C(O)C(=O)O (stereo not drawn) [Tartaric acid, disodium salt]
- Score (methylene blue) [1, 13]: 1.5 ± 0.4

Molecule: CC(C)O [Isopropyl alcohol]
- Score (methylene blue) [1, 9]: 0.2 ± 0.2

Molecule: CCCCCCCCCCCCOS(=O)(=O)[O-].[Na+] [Sodium dodecyl sulfate]
- Score (methylene blue) ([1]; additive concentration 0.01%, 24 h, scale 0 to 5, 0.5 or greater significant): 0 ± 0

Molecule: OCCOCCO [Diethylene glycol]
- Effect on pathway closure (in words) ([1]; guinea pig, in vivo): most effective agents
- Score (methylene blue) ([1]; guinea pig, in vivo): 3.2 ± 0.2

Molecule: C[S+](C)[O-] [Dimethylsulfoxide]
- Score (methylene blue) [1, 10]: 1.0 ± 0.0

Molecule: Cl.NC(CO)(CO)CO [Tromethamine hydrochloride]
- Effect on pathway closure (in words) ([1]; guinea pig, in vivo): most effective agents
- Score (methylene blue) ([1]; guinea pig, in vivo, hydrochloride): 3.7 ± 0.3 and 2.3 ± 0.3

Molecule: PEG-350
- Score (methylene blue) [1, 7]: 0 ± 0

Molecule: CCC(O)CO (stereo not drawn) [1-2 Butane diol]
- Score (methylene blue) ([1]; guinea pig, in vivo): 2.0 ± 0.8

From patent US7438926B2, “Methods for inhibiting decrease in transdermal drug flux by inhibition of pathway closure” (Alza Corporation, priority 2000, dated 2008)
